In ChEMBL document CHEMBL1201862, “PubChem BioAssay data set” (2004):
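The compound was tested at five concentrations on cells cultured in 96-well plates, with a 48-hour exposure period. GI50 marks 50% less growth.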 The source made the active and inactive calls. No stated cut-off is given here; in the data, active = GI50 up to about 1.1 µM and inactive = higher.

Columns and labels:
Experiment in all cases: DTP human tumour cell line panel, 48 h
MCF7 = tested on: MCF7
SK-MEL-28 = tested on: SK-MEL-28
OVCAR-5 = tested on: OVCAR-5
MDA-MB-435 = tested on: MDA-MB-435
A549 = tested on: A549
EKVX = tested on: EKVX
Malme-3M = tested on: Malme-3M
KM12 = tested on: KM12
U-251 = tested on: U-251
HCT-116 = tested on: HCT-116
HCT-15 = tested on: HCT-15
HCC 2998 = tested on: HCC 2998
OVCAR-4 = tested on: OVCAR-4
NCI-H226 = tested on: NCI-H226
NCI-H522 = tested on: NCI-H522
HOP-62 = tested on: HOP-62
PC-3 = tested on: PC-3
SF-268 = tested on: SF-268
UO-31 = tested on: UO-31
OVCAR-3 = tested on: OVCAR-3

| SMILES | GI50 (MCF7) | GI50 (SK-MEL-28) | GI50 (OVCAR-5) | GI50 (MDA-MB-435) | GI50 (A549) | GI50 (EKVX) | GI50 (Malme-3M) | GI50 (KM12) | GI50 (U-251) | GI50 (HCT-116) | GI50 (HCT-15) [µM] | GI50 (HCC 2998) | GI50 (OVCAR-4) | GI50 (NCI-H226) | GI50 (NCI-H522) | GI50 (HOP-62) | GI50 (PC-3) | GI50 (SF-268) | GI50 (UO-31) | GI50 (OVCAR-3) |
| --- | --- | --- | --- | --- | --- | --- | --- | --- | --- | --- | --- | --- | --- | --- | --- | --- | --- | --- | --- | --- |
| CC(CC(C)[C@H]1CCC2[C@H]3C(CC[C@@]21C)[C@@]1(C)CCC(O)C[C@H]1C[C@@H]3O)C(=O)O (stereo partly drawn) | > 100 µM (inactive) | > 100 µM (inactive) | > 100 µM (inactive) | > 100 µM (inactive) | > 100 µM (inactive) | > 100 µM (inactive) | > 100 µM (inactive) | > 100 µM (inactive) | > 100 µM (inactive) | > 100 µM (inactive) | > 100 | > 100 µM (inactive) | > 100 µM (inactive) | > 100 µM (inactive) | > 100 µM (inactive) | > 100 µM (inactive) | > 100 µM (inactive) | > 100 µM (inactive) | 66.2 µM (inactive) |  |
| c1ccc2c(c1)[nH]c1c2cc[n+]2cc3c(cc12)CCCC3 | 2.13 µM (inactive) | 1.47 µM (inactive) | 2.45 µM (inactive) | 1.91 µM (inactive) | 6.93 µM (inactive) | 4.89 µM (inactive) |  | 1.7 µM (inactive) | 2.51 µM (inactive) | 1.59 µM (inactive) | 10.5 | 1.87 µM (inactive) | 1.72 µM (inactive) | 2.03 µM (inactive) | 1.79 µM (inactive) | 1.66 µM (inactive) | 2.83 µM (inactive) | 2.93 µM (inactive) | 16.3 µM (inactive) | 1.16 µM (inactive) |
| O=C1O[C@H](c2ccc3c(c2)OCO3)[C@H]2CO[C@@H](c3ccc4c(c3)OCO4)[C@@H]12 | > 100 µM (inactive) | > 100 µM (inactive) | > 100 µM (inactive) | > 100 µM (inactive) | > 100 µM (inactive) | > 100 µM (inactive) | > 100 µM (inactive) | > 100 µM (inactive) | > 100 µM (inactive) | > 100 µM (inactive) | > 100 | > 100 µM (inactive) | 96.2 µM (inactive) | > 100 µM (inactive) | 94.8 µM (inactive) | > 100 µM (inactive) | > 100 µM (inactive) | > 100 µM (inactive) | > 100 µM (inactive) |  |
| COc1ccc2c(c1)CC[C@@H]1[C@@H]2CC[C@]2(C)C(=O)/C(=C/c3ccc(O)c(OC)c3)C[C@@H]12 | 60.4 µM (inactive) | 52.1 µM (inactive) | 76 µM (inactive) | 32 µM (inactive) | 51.6 µM (inactive) | 45.8 µM (inactive) |  |  | 51.3 µM (inactive) |  | 28.3 | 31.6 µM (inactive) | 55.8 µM (inactive) | 44.2 µM (inactive) |  | 62.7 µM (inactive) | 39.1 µM (inactive) |  | 71 µM (inactive) | > 100 µM (inactive) |
| NC(CCCCCP(=O)(c1ccccc1)C1C=CC=CC1)C(=O)O (stereo not drawn) | > 100 µM (inactive) | > 100 µM (inactive) | > 100 µM (inactive) | > 100 µM (inactive) | > 100 µM (inactive) | > 100 µM (inactive) |  | > 100 µM (inactive) | > 100 µM (inactive) | > 100 µM (inactive) | > 100 | > 10 µM (inactive) | > 100 µM (inactive) |  | > 100 µM (inactive) |  | > 100 µM (inactive) | > 100 µM (inactive) | > 100 µM (inactive) | > 100 µM (inactive) |
| C=CCN1C(=O)/C(=C/c2ccco2)N=C1SC1OC(COC(C)=O)C(OC(C)=O)C(OC(C)=O)C1OC(C)=O (stereo not drawn) | 62.5 µM (inactive) | > 100 µM (inactive) | > 100 µM (inactive) | > 100 µM (inactive) |  | > 100 µM (inactive) | 89.5 µM (inactive) | > 100 µM (inactive) | > 100 µM (inactive) |  | 88.1 | > 100 µM (inactive) | > 100 µM (inactive) | 78.3 µM (inactive) | 15.9 µM (inactive) | > 100 µM (inactive) | > 100 µM (inactive) |  |  | > 100 µM (inactive) |
| CSc1nncc2[nH]c(C)nc12 | > 100 µM (inactive) | > 100 µM (inactive) | > 100 µM (inactive) | > 100 µM (inactive) | > 100 µM (inactive) | > 100 µM (inactive) | > 100 µM (inactive) | > 100 µM (inactive) | > 100 µM (inactive) | > 100 µM (inactive) | > 100 | > 100 µM (inactive) | > 100 µM (inactive) | > 100 µM (inactive) | > 100 µM (inactive) | > 100 µM (inactive) | > 100 µM (inactive) |  | > 100 µM (inactive) | > 100 µM (inactive) |
| CN(C)/N=C1\CC(c2ccccc2)C(C#N)(C#N)C1(C#N)C#N (stereo not drawn) | 29.9 µM (inactive) | 19.2 µM (inactive) | 25.6 µM (inactive) | 27.6 µM (inactive) | 36.4 µM (inactive) | 41.6 µM (inactive) | 16.9 µM (inactive) | 49.3 µM (inactive) | 35.3 µM (inactive) | 17.8 µM (inactive) | 15.4 | 18.7 µM (inactive) | 33.2 µM (inactive) | 23.8 µM (inactive) | 12.2 µM (inactive) | 24.4 µM (inactive) | 19 µM (inactive) | 20.1 µM (inactive) | 18.6 µM (inactive) |  |
